Experimental data as given in patent publication EP1158000A1, “Crystal structure data of cystalysin and use thereof for the design and preparation of inhibitor molecules” (priority 2000, dated 2001).
Read-outs that look alike come from different tables or passages of the source.

Experiments:
cystalysin [1] = test: Spectral measurement of cystalysin after treatment with AVG; assay type: biochemical, Treponema denticola; conditions: chromophore at 336 nm formed simultaneously, spectra at 20°C in 100 mM phosphate buffer
Description: PLP-dependent enzymes catalyzing β-elimination reactions are known to be inhibited by a number of β,γ-unsaturated amino acids like the natural toxins rhizobitoxin (Owens et al., 1968) and L-aminoethoxyvinylglycine (AVG) (Pruess et al., 1974), that act as so-called slow-binding inhibitors (Morrison and Walsh, 1988). […] Spectral and fluorescence measurements lead to similar observations for cystalysin after incubation with AVG (Figure 4A). […] The inhibitor is mainly bound by hydrogen bonds to its carboxylate oxygens which originate from Ala39, Asn 175 and Arg369 (Figure 4C). […] Hydrophobic interactions are with Tyr64* and Phe273* which are in van-der-Waals contact to the carbon atoms CFI, CEI and CGI. Contrary for CBL, the amino-tail of the inhibitor is not bound to Tyr123, but stretched out in opposite direction towards a large hydrophobic cavity formed by the residues Leu17, Val38, Typ64* and Phe273* that is absent in CBL. […]
(A) The spectra of uncomplexed cystalysin and cystalysin after treatment with AVG, recorded at 20°C in 100 mM phosphate buffer. (B) Final 2Fo-Fc electron density of the PLP-AVG complex (yellow) and the intermediate protein vicinity (color-coding by atom type), contoured at 1.2 σ and calculated at 2.5 Å resolution. […]

cystalysin [2] = test: Loss of cystalysin enzyme activity through AVG; assay type: biochemical, Treponema denticola; conditions: dead end ketimine PLP derivative formed with AVG
Description: Overall, the PLP cofactor remains fixed in position with only the pyridine ring rotated slightly (≤ 10°), while no major structural changes regarding domain movement have been observed. These findings are contradicting an open/closed mechanism upon substrate binding, since the cystalysin-AVG structure should resemble the physiological enzyme-substrate complex. Due to the similarities in inhibition pattern and spectral changes, AVG should act on cystalysin in a similar manner as reported for CBL (Clausen et al., 1997). After transaldimination, a proton transfer from C^α to C4' is mediated by the deprotonated ε-amino group of the released Lys238, instead of protonating the leaving group. The resulting "dead end" ketimine PLP derivative is responsible for the observed 336 nm-chromophore and the total loss of enzyme activity. The inability of cystalysin to catalyze a transamination of this ketimine also accounts for the high stability of the final intermediate.

[3] = target: cystathionine β-lyase (CBL) (Escherichia coli, UniProt P06721); conditions: upon treatment with AVG; cited from earlier work
Chain of cystathionine β-lyase (CBL) (P06721 2-395): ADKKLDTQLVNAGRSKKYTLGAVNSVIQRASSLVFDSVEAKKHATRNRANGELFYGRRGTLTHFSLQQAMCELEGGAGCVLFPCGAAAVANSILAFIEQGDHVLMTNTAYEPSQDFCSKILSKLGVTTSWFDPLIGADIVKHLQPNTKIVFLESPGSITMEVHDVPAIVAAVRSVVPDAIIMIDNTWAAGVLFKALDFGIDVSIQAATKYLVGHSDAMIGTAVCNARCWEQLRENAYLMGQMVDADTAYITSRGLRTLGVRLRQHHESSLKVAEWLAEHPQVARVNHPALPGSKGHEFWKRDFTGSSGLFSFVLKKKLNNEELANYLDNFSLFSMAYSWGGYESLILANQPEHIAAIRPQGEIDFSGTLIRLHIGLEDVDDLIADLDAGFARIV

cystalysin [4] = conditions: substrate cleavage by cystalysin; cited from earlier work
[5] = target: T1, PLP-dependent β-cystathionase (osteotoxin) (Bordetella avium, UniProt Q07703); conditions: cited from earlier work
T1 sequence (Q07703 2-396 limits assumed): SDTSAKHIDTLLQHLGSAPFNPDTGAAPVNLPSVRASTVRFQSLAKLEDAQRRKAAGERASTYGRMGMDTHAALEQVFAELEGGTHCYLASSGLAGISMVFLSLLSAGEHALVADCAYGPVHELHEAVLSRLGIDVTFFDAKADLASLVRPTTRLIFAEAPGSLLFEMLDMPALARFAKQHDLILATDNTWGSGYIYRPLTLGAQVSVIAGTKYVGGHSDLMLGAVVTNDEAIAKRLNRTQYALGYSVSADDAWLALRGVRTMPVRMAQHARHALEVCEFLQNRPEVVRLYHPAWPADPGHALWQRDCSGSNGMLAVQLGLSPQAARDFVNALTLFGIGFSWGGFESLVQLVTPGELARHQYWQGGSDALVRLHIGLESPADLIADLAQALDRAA

| Structure (SMILES) | pyridoxaldimine absorbance of the active enzyme at 419 nm (cystalysin [1]) | enzyme activity (cystalysin [2]) | interaction with CBL [3] | Kcat (cystalysin [4]) [s⁻¹] | Km (cystalysin [4]) [mM] | Km ([5]; highest affinity substrate) [mM] | Km ([5]; weak affinity substrate) [mM] |
| --- | --- | --- | --- | --- | --- | --- | --- |
| NCCO/C=C/[C@H](N)C(=O)O [AVG, L-aminoethoxyvinylglycine] | rapid and complete loss | total loss | time-dependent formation of a long-lived, slowly dissociating enzyme-inhibitor compolex |  |  |  |  |
| N[C@@H](CS)C(=O)O [cysteine] |  |  |  | 12 | 3.6 | 0.077 | 5 |
